Results reported in PubChem BioAssay (NCI).
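1) Cells in 96-well plates. 2) Compound, 48 h, 5 concentrations. 3) Linear interpolation between surrounding doses. 4) Unreached endpoint = highest concentration. The concentration for full growth arrest is given as TGI.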

How the values were obtained:
Test in all cases: NCI-60 cell line screen, 48 h
HT29 colon = system: HT29 colon
COLO 205 colon = system: COLO 205 colon
NCI-H460 lung = system: NCI-H460 lung
PC-3 prostate = system: PC-3 prostate
UACC-62 melanoma = system: UACC-62 melanoma
SF-295 CNS = system: SF-295 CNS
ACHN renal = system: ACHN renal
SN12C renal = system: SN12C renal
SK-MEL-28 melanoma = system: SK-MEL-28 melanoma
OVCAR-3 ovarian = system: OVCAR-3 ovarian
A498 renal = system: A498 renal
TK-10 renal = system: TK-10 renal
CCRF-CEM leukemia = system: CCRF-CEM leukemia
CAKI-1 renal = system: CAKI-1 renal
SNB-75 CNS = system: SNB-75 CNS
M14 melanoma = system: M14 melanoma
MDA-N = system: MDA-N
MDA-MB-231 breast = system: MDA-MB-231 breast
U251 CNS = system: U251 CNS
K-562 leukemia = system: K-562 leukemia
HCT-116 colon = system: HCT-116 colon
OVCAR-4 ovarian = system: OVCAR-4 ovarian
HOP-62 NSCLC = system: HOP-62 NSCLC
MDA-MB-435 = system: MDA-MB-435
NCI-H522 lung = system: NCI-H522 lung
RXF 393 renal = system: RXF 393 renal
SK-OV-3 ovarian = system: SK-OV-3 ovarian
BT-549 breast = system: BT-549 breast
SK-MEL-5 melanoma = system: SK-MEL-5 melanoma
SR leukemia = system: SR leukemia
MALME-3M melanoma = system: MALME-3M melanoma
SW-620 colon = system: SW-620 colon
NCI/ADR-RES ovarian = system: NCI/ADR-RES ovarian
MOLT-4 leukemia = system: MOLT-4 leukemia
KM12 colon = system: KM12 colon
A549 NSCLC = system: A549 NSCLC
HCC-2998 colon = system: HCC-2998 colon
UO-31 renal = system: UO-31 renal
OVCAR-8 ovarian = system: OVCAR-8 ovarian
SF-268 CNS = system: SF-268 CNS
UACC-257 melanoma = system: UACC-257 melanoma
HCT-15 colon = system: HCT-15 colon
HOP-92 NSCLC = system: HOP-92 NSCLC
T-47D breast = system: T-47D breast
OVCAR-5 ovarian = system: OVCAR-5 ovarian
HL-60(TB) leukemia = system: HL-60(TB) leukemia
SNB-19 CNS = system: SNB-19 CNS
NCI-H226 lung = system: NCI-H226 lung
IGROV1 ovarian = system: IGROV1 ovarian
NCI-H23 lung = system: NCI-H23 lung
786-0 renal = system: 786-0 renal
DU-145 prostate = system: DU-145 prostate
EKVX NSCLC = system: EKVX NSCLC
MCF7 breast = system: MCF7 breast
LOX IMVI melanoma = system: LOX IMVI melanoma
SF-539 CNS = system: SF-539 CNS
SK-MEL-2 melanoma = system: SK-MEL-2 melanoma
RPMI-8226 leukemia = system: RPMI-8226 leukemia
HS 578T breast = system: HS 578T breast

Measured: TGI

CC1(C)Cc2c(cnn2-c2ccc(C(F)(F)F)cc2)-c2nc(-c3ccc(O)cc3)[nH]c21
70.2 µM: K-562 leukemia
36.2 µM: UO-31 renal
28.5 µM: ACHN renal | BT-549 breast | SF-268 CNS
33.9 µM: M14 melanoma | KM12 colon
30.9 µM: SK-MEL-28 melanoma
31.6 µM: DU-145 prostate
38 µM: SF-295 CNS
40.7 µM: MDA-MB-231 breast
33.2 µM: NCI-H460 lung
25.8 µM: HCT-15 colon
40.1 µM: IGROV1 ovarian
23 µM: HL-60(TB) leukemia
12.6 µM: 786-0 renal
25.2 µM: U251 CNS
38.5 µM: T-47D breast
33.3 µM: PC-3 prostate
39.6 µM: HOP-62 NSCLC
11.2 µM: CCRF-CEM leukemia
58.2 µM: OVCAR-8 ovarian
22.7 µM: MOLT-4 leukemia
45.1 µM: HOP-92 NSCLC
30 µM: HCC-2998 colon
15.6 µM: RXF 393 renal
45.3 µM: SK-OV-3 ovarian
86.1 µM: SNB-19 CNS
35.6 µM: COLO 205 colon
34 µM: SK-MEL-5 melanoma
29.7 µM: MALME-3M melanoma
39.1 µM: OVCAR-5 ovarian
31.8 µM: SN12C renal
35.3 µM: TK-10 renal
26.2 µM: NCI-H522 lung
34.6 µM: CAKI-1 renal
45 µM: NCI/ADR-RES ovarian
31 µM: UACC-62 melanoma
52.3 µM: NCI-H226 lung
29.2 µM: OVCAR-4 ovarian
41.2 µM: NCI-H23 lung
17.4 µM: HT29 colon
34.4 µM: UACC-257 melanoma
21 µM: SNB-75 CNS
43 µM: LOX IMVI melanoma
28.4 µM: HCT-116 colon
29.4 µM: OVCAR-3 ovarian
42.9 µM: EKVX NSCLC
38.6 µM: MDA-N | A549 NSCLC
28.7 µM: SR leukemia
51.5 µM: SW-620 colon
30.7 µM: MCF7 breast
43.7 µM: A498 renal
37.8 µM: MDA-MB-435

CC(=O)OCC1OC(N2C(=O)NC(=O)C3C=C4CCCCC4=CC32)C(OC(C)=O)C1OC(C)=O (stereo not given)
> 100 µM: COLO 205 colon | NCI-H460 lung | PC-3 prostate | UACC-62 melanoma | SF-295 CNS | ACHN renal | SN12C renal | SK-MEL-28 melanoma | SF-539 CNS | OVCAR-3 ovarian | A498 renal | TK-10 renal | CCRF-CEM leukemia | CAKI-1 renal | M14 melanoma | MDA-N | MDA-MB-231 breast | SK-MEL-2 melanoma | U251 CNS | K-562 leukemia | HCT-116 colon | OVCAR-4 ovarian | MDA-MB-435 | NCI-H522 lung | RXF 393 renal | SK-OV-3 ovarian | BT-549 breast | SK-MEL-5 melanoma | SR leukemia | MALME-3M melanoma | SW-620 colon | RPMI-8226 leukemia | MOLT-4 leukemia | A549 NSCLC | HCC-2998 colon | UO-31 renal | UACC-257 melanoma | HCT-15 colon | HOP-92 NSCLC | T-47D breast | OVCAR-5 ovarian | HL-60(TB) leukemia | SNB-19 CNS | IGROV1 ovarian | NCI-H23 lung | DU-145 prostate | EKVX NSCLC | MCF7 breast | LOX IMVI melanoma

COc1ccc(/C=C2/SC(c3ccc(Cl)cc3)N(NC(=O)CCCCCCCCC(=O)NN3C(=O)/C(=C\c4ccc(OC)c(OC)c4)SC3c3ccc(Cl)cc3)C2=O)cc1OC (stereo not given)
98.4 µM: MDA-N
70.7 µM: RXF 393 renal
85.5 µM: SF-539 CNS
57.9 µM: HOP-62 NSCLC
76.8 µM: 786-0 renal
47.1 µM: NCI-H23 lung
59.9 µM: SF-295 CNS
89.3 µM: UACC-62 melanoma
> 100 µM: HT29 colon | COLO 205 colon | NCI-H460 lung | PC-3 prostate | ACHN renal | SN12C renal | SK-MEL-28 melanoma | OVCAR-3 ovarian | TK-10 renal | CAKI-1 renal | SNB-75 CNS | M14 melanoma | MDA-MB-231 breast | SK-MEL-2 melanoma | U251 CNS | K-562 leukemia | HCT-116 colon | OVCAR-4 ovarian | MDA-MB-435 | SK-OV-3 ovarian | BT-549 breast | SK-MEL-5 melanoma | SR leukemia | SW-620 colon | NCI/ADR-RES ovarian | RPMI-8226 leukemia | MOLT-4 leukemia | KM12 colon | A549 NSCLC | HCC-2998 colon | UO-31 renal | OVCAR-8 ovarian | SF-268 CNS | UACC-257 melanoma | HCT-15 colon | T-47D breast | OVCAR-5 ovarian | SNB-19 CNS | NCI-H226 lung | DU-145 prostate | MCF7 breast
82.1 µM: A498 renal
48.8 µM: HOP-92 NSCLC
78.7 µM: EKVX NSCLC
59.8 µM: IGROV1 ovarian

Cc1nnc2n1-c1ccccc1-c1[nH]c3ccccc3c1C2
> 100 µM: HT29 colon | COLO 205 colon | NCI-H460 lung | PC-3 prostate | UACC-62 melanoma | SF-295 CNS | ACHN renal | SN12C renal | SK-MEL-28 melanoma | SF-539 CNS | OVCAR-3 ovarian | TK-10 renal | CCRF-CEM leukemia | CAKI-1 renal | M14 melanoma | MDA-N | MDA-MB-231 breast | K-562 leukemia | HCT-116 colon | OVCAR-4 ovarian | HOP-62 NSCLC | MDA-MB-435 | RXF 393 renal | SK-OV-3 ovarian | SK-MEL-5 melanoma | HS 578T breast | SR leukemia | MALME-3M melanoma | SW-620 colon | NCI/ADR-RES ovarian | RPMI-8226 leukemia | MOLT-4 leukemia | KM12 colon | A549 NSCLC | UO-31 renal | OVCAR-8 ovarian | SF-268 CNS | UACC-257 melanoma | HOP-92 NSCLC | T-47D breast | OVCAR-5 ovarian | SNB-19 CNS | NCI-H226 lung | IGROV1 ovarian | NCI-H23 lung | 786-0 renal | DU-145 prostate | EKVX NSCLC | MCF7 breast | LOX IMVI melanoma
61.7 µM: SNB-75 CNS
70.8 µM: HL-60(TB) leukemia
78.2 µM: A498 renal

O=C1/C(=C/c2ccco2)N=C(c2ccccc2)N1c1ccc(S(=O)(=O)Nc2nccs2)cc1
94.5 µM: HCT-15 colon
89.5 µM: UACC-257 melanoma
> 100 µM: HT29 colon | COLO 205 colon | NCI-H460 lung | PC-3 prostate | UACC-62 melanoma | SF-295 CNS | ACHN renal | SN12C renal | SF-539 CNS | OVCAR-3 ovarian | TK-10 renal | CCRF-CEM leukemia | CAKI-1 renal | SNB-75 CNS | M14 melanoma | MDA-N | MDA-MB-231 breast | SK-MEL-2 melanoma | U251 CNS | K-562 leukemia | HCT-116 colon | OVCAR-4 ovarian | HOP-62 NSCLC | MDA-MB-435 | NCI-H522 lung | RXF 393 renal | SK-OV-3 ovarian | BT-549 breast | SK-MEL-5 melanoma | SR leukemia | MALME-3M melanoma | SW-620 colon | NCI/ADR-RES ovarian | RPMI-8226 leukemia | MOLT-4 leukemia | KM12 colon | A549 NSCLC | HCC-2998 colon | UO-31 renal | OVCAR-8 ovarian | SF-268 CNS | HOP-92 NSCLC | T-47D breast | OVCAR-5 ovarian | HL-60(TB) leukemia | NCI-H226 lung | IGROV1 ovarian | NCI-H23 lung | 786-0 renal | DU-145 prostate | EKVX NSCLC | MCF7 breast | LOX IMVI melanoma
